Reference: the supplement of paper PMC10307832

Tests used:
Assay in all cases: relative viability (nuclei count vs DMSO), 5 days (fraction); higher = more cells survive
Crizotinib + Luminespib = compound: C[C@@H](Oc1cc(-c2cnn(C3CCNCC3)c2)cnc1N)c1c(Cl)ccc(F)c1Cl [Crizotinib] + CCNC(=O)c1noc(-c2cc(C(C)C)c(O)cc2O)c1-c1ccc(CN2CCOCC2)cc1 [Luminespib] (partner 0.01 µM)
Method in brief: (§1)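 A single step with final 0.05% Triton X-100, 1% formaldehyde and 1 ug/ml Hoechst fixed the cells and stained nuclei 5 days after treatment. Lung cancer cell lines in 1536-well plates had been treated by pin tool the day after seeding with one drug alone or a fixed anchor-drug dose plus five library-drug doses (not always all listed) in √10 steps, and nuclei were counted on 4× images. Relative viability is the ratio of nuclei in treated wells to nuclei in vehicle wells, taken as the median of duplicate plates.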

Crizotinib + Linsitinib = compound: C[C@@H](Oc1cc(-c2cnn(C3CCNCC3)c2)cnc1N)c1c(Cl)ccc(F)c1Cl [Crizotinib] + C[C@]1(O)C[C@@H](c2nc(-c3ccc4ccc(-c5ccccc5)nc4c3)c3c(N)nccn32)C1 [Linsitinib] (partner 1 µM)
Method in brief: as §1

Carfilzomib = compound: CC(C)C[C@H](NC(=O)[C@H](CCc1ccccc1)NC(=O)CN1CCOCC1)C(=O)N[C@@H](Cc1ccccc1)C(=O)N[C@@H](CC(C)C)C(=O)[C@@]1(C)CO1 [Carfilzomib]
Method in brief: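 Hoechst staining, done together with fixation and permeabilisation, marked nuclei for 4× imaging and MetaXpress counting. This followed 5 days without medium change after lung cancer cell lines, kept overnight at 37 °C in 1536-well plates, were pinned with five library-drug doses (not always all listed) spaced by √10 on vehicle-anchored plates. Viability is the ratio of treated-well to vehicle-well nuclei, expressed as a median across plates. Plates passed only at control CV below 25% with at least one doubling.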

Cell Line | relative viability (Crizotinib + Luminespib; first compound 0.01 µM) | relative viability (Crizotinib + Luminespib; first compound 0.03162 µM) | relative viability (Crizotinib + Luminespib; first compound 0.1 µM) | relative viability (Crizotinib + Luminespib; first compound 0.3162 µM) | relative viability (Crizotinib + Luminespib; first compound 1 µM) | relative viability (Crizotinib + Linsitinib; first compound 0.01 µM) | relative viability (Crizotinib + Linsitinib; first compound 0.03162 µM) | relative viability (Crizotinib + Linsitinib; first compound 0.1 µM) | relative viability (Crizotinib + Linsitinib; first compound 0.3162 µM) | relative viability (Crizotinib + Linsitinib; first compound 1 µM) | relative viability (Carfilzomib; 0.001 µM) | relative viability (Carfilzomib; 0.003162 µM) | relative viability (Carfilzomib; 0.01 µM) | relative viability (Carfilzomib; 0.03162 µM) | relative viability (Carfilzomib; 0.1 µM)
LU99A | 0.234 | 0.22 | 0.254 | 0.23 | 0.246 | 0.477 | 0.541 | 0.528 | 0.486 | 0.579 | 0.991 | 1.06 | 0.982 | 0.893 | 0.433
NCI-H2228 | 0.119 | 0.16 | 0.132 | 0.122 | 0.119 | 0.629 | 0.733 | 0.718 | 0.371 | 0.328 | 0.975 | 1.15 | 0.905 | 0.157 | 0.101
NCI-H1395 | 0.632 | 0.621 | 0.692 | 0.759 | 0.627 | 1.07 | 1.17 | 0.944 | 1.01 | 1.03 | 0.764 | 1.08 | 0.669 | 0.437 | 0.34
HCC-15 | 0.382 | 0.409 | 0.443 |  | 0.334 | 0.819 | 0.934 | 0.864 | 0.886 | 0.946 | 0.954 | 1.07 | 1.07 | 0.709 | 0.177
RERF-LC-KJ | 1.22 | 1.31 | 1.29 | 1.21 | 1.21 | 0.972 | 0.94 |  | 0.935 |  | 0.923 | 1.03 | 1.05 | 0.683 | 0.259
NCI-H647 | 0.2 | 0.14 | 0.146 | 0.152 | 0.153 | 1.2 | 0.92 | 1.12 | 1.04 | 1.2 | 0.873 | 1.06 | 0.978 | 0.0791 | 0.038
201T | 1.01 | 1.07 |  | 1.06 |  | 1.02 |  | 1.04 | 1.03 | 1.12 | 0.957 | 1.01 | 1.01 | 1.04 | 0.849
HOP-62 | 0.915 | 0.789 | 0.995 | 0.855 | 0.902 | 0.81 | 0.946 | 1.1 | 0.956 | 0.816 | 1.04 | 1.09 | 0.92 | 0.251 | 0.106
NCI-H1734 | 0.213 | 0.182 | 0.209 |  | 0.193 | 0.888 | 0.843 | 0.851 |  | 0.82 | 0.972 | 1.04 | 0.904 | 0.354 | 0.124
NCI-H1563 | 0.528 | 0.505 | 0.49 | 0.566 | 0.534 | 1.18 | 1.12 | 1.22 | 1.3 | 1.27 | 0.945 | 1.08 | 1.03 | 0.934 | 0.613
NCI-H2405 | 0.629 | 0.706 | 0.697 | 0.785 | 0.806 | 0.885 | 0.897 | 0.882 | 1.04 | 0.919 | 0.704 | 1.15 | 1.1 | 0.8 | 0.277
NCI-H727 |  | 0.346 | 0.296 |  | 0.509 | 0.305 | 0.282 | 0.261 | 0.271 | 0.409 | 0.886 | 0.998 | 1.12 | 0.698 | 0.423
SW 1573 | 0.132 | 0.342 | 0.253 | 0.405 | 0.236 | 0.707 | 0.73 | 0.802 | 0.802 |  | 0.957 | 1.18 | 0.77 | 0.173 | 0.0655
HCC-44 | 1.03 | 0.99 | 0.988 | 1.05 | 1.06 | 0.646 | 0.721 | 0.595 | 0.704 | 0.719 | 0.988 | 0.996 | 1.05 | 0.819 | 0.317
A-427 | 0.91 | 0.904 | 0.946 |  | 0.963 | 1.1 | 1.12 | 1.16 |  | 1.1 | 0.936 | 1.15 | 0.957 | 0.479 | 0.134
